Assays:
SKN-1 = system: SKN-1
Procedure: Western Blot Analysis. Protein expression was determined by Western blot analysis. Equal amount of protein from each sample was run in Tris-glycine SDS PAGE gel, followed by transferring to PVDF membrane. After blocking the membrane with 5% milk for 1 hour at room temperature, the membrane was incubated further for 2 hours with antibodies specific for target proteins: Nrf2, pNrf2(S40) from Novus (Littleton, Colo.); Keap1, HO-1, NQO1, GCLc, GCLm and lamin B1 from Cell Signaling (Danvers, Mass.); GAPDH from Santa Cruz (Dallas, Tex.); β-Actin from Thermo Fisher (Waltham, Mass.). The membrane was subsequently incubated with species-specific HRP-conjugated secondary antibody followed by incubation with chemiluminescence substrate and imaging. The band intensity of each of the target proteins was quantified using ImageQuant software (GE Healthcare, Sweden). Western blot analysis on worm lystaes was done similarly. […] Equal amounts of protein were run on the gel and SKN-1 protein level was detected using anti-GFP antibody.

SH-SY5Y cells [1] = system: SH-SY5Y cells
Procedure: Viability of the cells was measured by Cell Titer Glo after 24 and 48 hours of treatments. […] Values are presented as mean±SDE (*p<0.05, **p<0.01).
SH-SY5Y neuroblastoma cells were treated with doxorubicin (0.2 μM), a cytotoxic compound that depletes the NAD pool of the cells and changes morphological features that mimic neurodegeneration such as loss of neuritis (8, 9).

SH-SY5Y cells [2] = assay: Protein carbonyl assay (2,4-DNPH) in H2O2-stressed cells; format: cell-based, human; conditions: 100 μM H2O2 24 h, 10 and 25 μM compound
Procedure: (§1) To generate intracellular aldehydes, the inventors treated human neuroblastoma cell line (SH-SY5Y) with 100 μM hydrogen peroxide (H2O2) for 24 h. Carbonyl groups were quantified using 2,4-DNPH (dinitrophenylhydrazine) assay.
Protein carbonyl Assay. Protein carbonyls were measured using a commercially available kit (MAK094; Sigma-Aldrich, St. Louis, Mo.). Cells were first lysed in lysis buffer provided by the kit.
Following centrifugation, 100 μL of supernatant was added to 10 μL of 10% […] solution, was incubated at room temperature for 10 min and re-centrifuged to remove interfering nucleic acids. Carbonyl content of supernatant was determined by adding 2, 4-dinatrophenylhydrazine followed by detection of dinitrophenyl hydrazine adduct at 375 nm in a 96 well plate reader. The protein content of each sample was determined using a bicinchoninic acid (BCA) assay, Thermo Fischer, Waltham, Mass.).

Keap1-Nrf2 = Keap1-Nrf2 (Homo sapiens, UniProt Q14145); conditions: data not shown
Chain of Keap1-Nrf2 (Q14145 whole entry): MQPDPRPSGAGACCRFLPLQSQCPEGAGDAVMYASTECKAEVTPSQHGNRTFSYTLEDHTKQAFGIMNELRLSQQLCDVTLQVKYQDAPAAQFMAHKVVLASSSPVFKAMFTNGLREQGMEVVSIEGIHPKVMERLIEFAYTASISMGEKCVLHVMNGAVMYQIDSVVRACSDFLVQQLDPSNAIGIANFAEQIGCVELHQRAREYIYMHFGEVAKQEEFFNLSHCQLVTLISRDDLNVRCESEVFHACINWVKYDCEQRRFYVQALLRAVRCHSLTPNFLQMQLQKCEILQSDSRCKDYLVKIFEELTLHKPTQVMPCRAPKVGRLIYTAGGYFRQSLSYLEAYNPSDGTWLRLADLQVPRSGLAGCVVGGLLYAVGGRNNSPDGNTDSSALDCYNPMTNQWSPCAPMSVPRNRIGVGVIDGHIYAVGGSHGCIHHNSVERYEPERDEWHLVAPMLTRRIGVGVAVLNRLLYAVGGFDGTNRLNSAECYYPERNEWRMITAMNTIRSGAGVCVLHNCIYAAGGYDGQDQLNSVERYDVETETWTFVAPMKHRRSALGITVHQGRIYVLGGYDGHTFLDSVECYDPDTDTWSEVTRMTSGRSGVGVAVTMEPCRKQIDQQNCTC

C. elegans = system: C. elegans
Procedure: The inventors also evaluated locomotion in worms to investigate the health of the rescued animals.
Locomotion Assays. To measure locomotion, worms were subjected to 30 seconds video recording on a Zeiss Axio Zoom. V16 fluorescence dissecting microscope equipped with Axiocam 503 and ZEN2 software. Bending rate (the number of body-bends-per-seconds) was measured by placing live animals on a plate containing M9 buffer, filming for 30 seconds and counting the number of bends. Healthiness of the worms was measured by their bending rate of young, middle aged and aged animals. […] The results were obtained from 3 individual trials.

[3] = system: neuropeptide Y, synaptotagmin; conditions: data not shown
Description: Neuronal plasticity, defined as the brain's ability to form new neural connections, allows the neurons to compensate for injury and disease and to adjust their activities in response to new situations or changes in their environment.

GSK3β and Tau = system: GSK3β and Tau
Procedure: (§2) The data represents as percent cell viability normalized to DMSO treated control cells. The values are mean percent of two biological experiments performed in six replicates. […] After treatment Western blot analysis was performed to check the levels of p-GSK3β and total GSK3β in addition to p-Tau and total Tau level. […] Densitometry values were normalized using actin as internal control. All western blot analysis (FIG. 19B, 19C) values are mean±SD from three biological independent experiments (shown in the right panel).
(§3) To mimic the cellular environment of AD disease a stable HEK293 cell line (HEKTauP301S) overexpressing mutated full length Tau (P301S) was used.

HEKTauP301S cells = conditions: 20 μM Aβ (1-42), 5 and 10 μM, 24 hours
Procedure: as §2, §3

[4] = system: NMNAT-1, SIRT1, SIRT5 and COX-IV
Description: Data were normalized to actin. […] The intensity of the bands was normalized to actin. Data are mean±SEM of triplicate measurements.

SH-SY5Y cells [5] = assay: H2O2-EC50 of hydralazine and its analogs (protection from H2O2 stress); format: cell-based; conditions: Homo sapiens
Procedure: as §1
Cell Viability and Cytotoxicity Assay. Cell growth was analyzed using the MTT cell viability assay. Briefly, at the end of incubation/treatment, MTT reagent was diluted in culture medium and aliquoted into each well. After incubation for 2 hours, the medium was aspirated and DMSO was aliquoted into each well to disrupt the cells and dissolve the intracellular MTT dyes. Absorbance was read at 570 nm wavelength in a 96-well plate reader. Cell toxicity was detected using a LDH cell toxicity assay kit (Promega, Fitchburg Wis.). This is a coupled enzymatic assay that detects a visible color signal initially described by Nachlas et. al. The reagent contained excess concentrations of lactate and NAD+as substrates to drive the LDH reaction and produce NADH. In the presence of diaphorase, NADH drives the enzyme-catalyzed conversion of iodonitro-tetrazolium violet to a red formazan product. Briefly, DMEM medium was withdrawn from each well of the plate after treatment and briefly centrifuged to get rid of floating cells or cell debris. Then, the medium supernatant was mixed with equal volume of substrate/enzyme mixture included in the kit (lactate, NAD+, diaphorase and iodonitro-tetrazolium violet), followed by incubation at room temperature for 15 minutes before the addition of acetic acid to cease the reaction. The absorbance was read at 490 nm in a 96-well plate reader. […] Cell viability assay was performed using CellTiter-Glo assay.

[6] = system: SKN-1/Nrf2-stress response pathway; conditions: in vivo
Procedure: Treated and untreated populations, four biological replicates each, were then lysed, digested and analyzed by shotgun mass spectrometry for label-free quantification. […] An IPA analysis was performed using proteins with human orthologs.
Worms were lysed in 8M urea, 5% 1 M Tris-HCl pH 8.0 and 1× protease inhibitor cocktail EDTA-free (Thermo Fisher, Waltham Mass.) buffer with the aid of sonication. Lysates were centrifuged at 14000 g for 15 min at 4° C. and proteins in the supernatant were precipitated using cold acetone. Disulfide bonds were reduced and alkylated (by DTT and IAA respectively) before diluting the solution to 1.8 M with 25 mM TRIS-HCL pH 8.0. Proteins were digested overnight at 37° C. with trypsin (Promega, Fitchburg Wis.) in presence of 1 mM CaCl2. Peptides were acidified with TFA and purified using Oasis HLB plates (Waters, UK). A Dionex Ultimate 3000 UHPLC (Thermo) was coupled to an Orbitrap Fusion Lumos mass spectrometer for the separation and analysis of tryptic peptides. […]
LC-MS/MS raw data files were processed using the latest available MaxQuant software (v.1.5.3.30). […] The p-values for all the statistical analysis were calculated using a two-tailed student t-test as used for normally distributed data (we pre-processed intensities by binary logarithm).

[7] = HEKTauP301S, 500 nM Aβ (1-42), 10 μM, 24 hours

NNc1nncc2ccccc12 [Hydralazine]
expression of SKN-1 isoforms (B and C) by Western blot (SKN-1; 100 μM, 72 hours): showed increases
signal intensity and localization of SKN-1::GFP in intestinal nuclei and ASI neurons (SKN-1; in vivo): significantly increased
increase of NAD level of untreated cell (SH-SY5Y cells [1]; 48 hours): 50%
NAD level in doxorubicin treated cells (SH-SY5Y cells [1]; doxorubicin 0.2 μM): significant effect on restoring NAD level
protection against doxorubicin induced cell death (SH-SY5Y cells [1]; doxorubicin 0.2 μM, 0, 10, 20 μM, 24 and 48 hours): protects cells in a dose-dependent manner
protein carbonyls (SH-SY5Y cells [2]): significantly reduced the carbonyl level
protein carbonyls (SH-SY5Y cells [2]; listed as hydralazine): reduced protein carbonyls significantly
direct binding and interruption of Keap1-Nrf2 interaction (Keap1-Nrf2): ruled out the direct binding hypothesis
locomotor performance in skn-1(zu135) animals (C. elegans; 4, 8, 12 days): did not improve
locomotor performance of young (5 days), middle age (10 days), and old (15 days) N2 animals (C. elegans; N2): significant improvement
locomotor performance of pre-treated animals exposed to rotenone (C. elegans; N2, 100 μM, 50 μM rotenone 6 h): superior locomotor performance
increase of expression of neuropeptide Y [3]: 3 fold
increase of expression of synaptotagmin [3]: ~2.5 fold
phosphorylation level of GSK3β in control HEK293 cells (GSK3β and Tau; HEKT293 cells as control): not able to detect a significant upregulation
Aβ-induced Tau phosphorylation (GSK3β and Tau; [7]): inhibits Aβ-induced Tau phosphorylation
phosphorylation of GSK3β (GSK3β and Tau; [7]): upregulates the phosphorylation of GSK3β
viability under Aβ (1-42)-induced toxicity (HEKTauP301S cells): protects Tau-overexpressing cells
transcription level of NMNAT-1, SIRT1, SIRT5 (qRT-PCR) ([4]; 20 μM, 12 hours): increased the transcription level
NMNAT-1, SIRT1, SIRT5 protein (Western blot) ([4]; 10 and 20 μM): up-regulated at the protein level
level of COX-IV ([4]; after 48 hours): significant increase
EC50 (SH-SY5Y cells [5]): 6.78 µM
SKN-1/Nrf2-stress response pathway activation, IPA Z score [6]: 3.317
